Data from the kinase profiling compilation of Christmann-Franck et al. (2016).

Legend:
Assay in all cases: KINOMEscan competition binding
Conditions in all cases: compound 10.0 µM
MAPK6 (human) = MAPK6 (human) (UniProt Q16659)
NEK6 (human) = NEK6 (human) (UniProt Q9HC98)
[1] = target: JAK2 JH1 catalytic (human) (UniProt O60674)
ALK (human) = ALK (human) (UniProt Q9UM73)
RPS6KA5 KD2 (human) = RPS6KA5 KD2 (human) (UniProt O75582)
CDK15 (human) = CDK15 (human) (UniProt Q96Q40)
FLT1 (human) = FLT1 (human) (UniProt P17948)
[2] = target: JAK1 JH2 pseudokinase (human) (UniProt P23458)
CDC2L2 (human) = CDC2L2 (human) (UniProt Q9UQ88)
MAPKAPK5 (human) = MAPKAPK5 (human) (UniProt Q8IW41)
MAPK3 (human) = MAPK3 (human) (UniProt P27361)
PAK1 (human) = PAK1 (human) (UniProt Q13153)
MAPK15 (human) = MAPK15 (human) (UniProt Q8TD08)
CSNK2A1 (human) = CSNK2A1 (human) (UniProt P68400)
SGK1 (human) = SGK1 (human) (UniProt O00141)
RPS6KA4 KD1 (human) = RPS6KA4 KD1 (human) (UniProt O75676)
CIT (human) = CIT (human) (UniProt O14578)
LTK (human) = LTK (human) (UniProt P29376)
ABL1 (human) = ABL1 (human) (UniProt P00519)
[3] = system: ABL1 (human), P00519 [H396P]
STK4 (human) = STK4 (human) (UniProt Q13043)
CDK7 (human) = CDK7 (human) (UniProt P50613)
BUB1 (human) = BUB1 (human) (UniProt O43683)
MAP3K11 (human) = MAP3K11 (human) (UniProt Q16584)
SYK (human) = SYK (human) (UniProt P43405)
CSNK2A2 (human) = CSNK2A2 (human) (UniProt P19784)
NEK7 (human) = NEK7 (human) (UniProt Q8TDX7)
PKMYT1 (human) = PKMYT1 (human) (UniProt Q99640)
NTRK3 (human) = NTRK3 (human) (UniProt Q16288)
PLK2 (human) = PLK2 (human) (UniProt Q9NYY3)
CDC42BPG (human) = CDC42BPG (human) (UniProt Q6DT37)
MAPK11 (human) = MAPK11 (human) (UniProt Q15759)
GSG2 (human) = GSG2 (human) (UniProt Q8TF76)
ERBB4 (human) = ERBB4 (human) (UniProt Q15303)
RPS6KA1 KD1 (human) = RPS6KA1 KD1 (human) (UniProt Q15418)
EGFR (human) = EGFR (human) (UniProt P00533)
STK17B (human) = STK17B (human) (UniProt O94768)
ERBB3 (human) = ERBB3 (human) (UniProt P21860)

Chain of EGFR (human) (P00533 whole entry, looked up): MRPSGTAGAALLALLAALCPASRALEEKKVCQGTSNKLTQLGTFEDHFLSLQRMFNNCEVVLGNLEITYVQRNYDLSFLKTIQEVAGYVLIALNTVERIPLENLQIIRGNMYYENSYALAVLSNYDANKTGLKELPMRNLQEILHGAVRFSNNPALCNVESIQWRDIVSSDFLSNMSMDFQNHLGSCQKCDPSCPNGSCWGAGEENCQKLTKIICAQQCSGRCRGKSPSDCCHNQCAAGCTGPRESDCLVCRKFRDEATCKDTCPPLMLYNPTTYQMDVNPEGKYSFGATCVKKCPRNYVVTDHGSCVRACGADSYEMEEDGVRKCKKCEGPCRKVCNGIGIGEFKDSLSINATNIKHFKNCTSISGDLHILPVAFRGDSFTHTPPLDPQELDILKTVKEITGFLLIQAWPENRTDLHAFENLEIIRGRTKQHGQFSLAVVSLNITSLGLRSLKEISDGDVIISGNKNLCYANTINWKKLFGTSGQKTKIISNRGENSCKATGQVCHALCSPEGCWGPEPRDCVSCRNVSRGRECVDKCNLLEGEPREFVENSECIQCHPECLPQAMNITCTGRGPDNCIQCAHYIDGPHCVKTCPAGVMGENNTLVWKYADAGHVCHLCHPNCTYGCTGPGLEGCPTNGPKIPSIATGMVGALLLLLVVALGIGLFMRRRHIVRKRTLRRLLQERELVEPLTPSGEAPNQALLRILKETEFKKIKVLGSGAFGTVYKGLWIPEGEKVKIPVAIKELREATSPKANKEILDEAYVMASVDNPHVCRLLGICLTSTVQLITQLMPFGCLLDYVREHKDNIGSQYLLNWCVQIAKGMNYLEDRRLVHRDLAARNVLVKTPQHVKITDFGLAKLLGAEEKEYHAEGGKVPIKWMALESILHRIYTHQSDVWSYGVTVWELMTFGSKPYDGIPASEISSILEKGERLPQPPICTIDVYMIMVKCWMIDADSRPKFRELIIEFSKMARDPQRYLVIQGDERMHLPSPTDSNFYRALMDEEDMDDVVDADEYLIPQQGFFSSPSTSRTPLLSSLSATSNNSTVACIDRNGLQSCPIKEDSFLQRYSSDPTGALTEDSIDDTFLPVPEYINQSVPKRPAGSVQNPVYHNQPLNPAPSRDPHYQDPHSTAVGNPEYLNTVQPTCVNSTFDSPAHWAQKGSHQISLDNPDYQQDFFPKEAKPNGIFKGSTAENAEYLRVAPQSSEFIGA
Chain of PAK1 (human) (Q13153 whole entry, looked up): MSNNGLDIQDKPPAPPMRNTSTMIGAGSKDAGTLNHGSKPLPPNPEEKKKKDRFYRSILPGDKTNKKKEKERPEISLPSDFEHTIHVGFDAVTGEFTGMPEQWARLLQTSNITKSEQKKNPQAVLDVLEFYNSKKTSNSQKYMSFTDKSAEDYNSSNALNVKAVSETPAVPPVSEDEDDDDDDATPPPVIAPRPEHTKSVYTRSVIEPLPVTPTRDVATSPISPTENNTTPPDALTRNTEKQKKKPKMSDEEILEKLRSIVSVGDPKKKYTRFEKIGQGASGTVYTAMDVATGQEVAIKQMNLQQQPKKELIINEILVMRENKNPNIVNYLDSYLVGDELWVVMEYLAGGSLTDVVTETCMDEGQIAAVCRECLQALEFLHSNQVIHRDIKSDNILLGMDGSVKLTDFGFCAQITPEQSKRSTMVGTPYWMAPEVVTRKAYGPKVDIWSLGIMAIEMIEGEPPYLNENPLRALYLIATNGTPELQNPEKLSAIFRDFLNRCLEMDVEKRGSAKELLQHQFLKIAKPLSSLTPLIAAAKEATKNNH
Chain of CDC42BPG (human) (Q6DT37 whole entry, looked up): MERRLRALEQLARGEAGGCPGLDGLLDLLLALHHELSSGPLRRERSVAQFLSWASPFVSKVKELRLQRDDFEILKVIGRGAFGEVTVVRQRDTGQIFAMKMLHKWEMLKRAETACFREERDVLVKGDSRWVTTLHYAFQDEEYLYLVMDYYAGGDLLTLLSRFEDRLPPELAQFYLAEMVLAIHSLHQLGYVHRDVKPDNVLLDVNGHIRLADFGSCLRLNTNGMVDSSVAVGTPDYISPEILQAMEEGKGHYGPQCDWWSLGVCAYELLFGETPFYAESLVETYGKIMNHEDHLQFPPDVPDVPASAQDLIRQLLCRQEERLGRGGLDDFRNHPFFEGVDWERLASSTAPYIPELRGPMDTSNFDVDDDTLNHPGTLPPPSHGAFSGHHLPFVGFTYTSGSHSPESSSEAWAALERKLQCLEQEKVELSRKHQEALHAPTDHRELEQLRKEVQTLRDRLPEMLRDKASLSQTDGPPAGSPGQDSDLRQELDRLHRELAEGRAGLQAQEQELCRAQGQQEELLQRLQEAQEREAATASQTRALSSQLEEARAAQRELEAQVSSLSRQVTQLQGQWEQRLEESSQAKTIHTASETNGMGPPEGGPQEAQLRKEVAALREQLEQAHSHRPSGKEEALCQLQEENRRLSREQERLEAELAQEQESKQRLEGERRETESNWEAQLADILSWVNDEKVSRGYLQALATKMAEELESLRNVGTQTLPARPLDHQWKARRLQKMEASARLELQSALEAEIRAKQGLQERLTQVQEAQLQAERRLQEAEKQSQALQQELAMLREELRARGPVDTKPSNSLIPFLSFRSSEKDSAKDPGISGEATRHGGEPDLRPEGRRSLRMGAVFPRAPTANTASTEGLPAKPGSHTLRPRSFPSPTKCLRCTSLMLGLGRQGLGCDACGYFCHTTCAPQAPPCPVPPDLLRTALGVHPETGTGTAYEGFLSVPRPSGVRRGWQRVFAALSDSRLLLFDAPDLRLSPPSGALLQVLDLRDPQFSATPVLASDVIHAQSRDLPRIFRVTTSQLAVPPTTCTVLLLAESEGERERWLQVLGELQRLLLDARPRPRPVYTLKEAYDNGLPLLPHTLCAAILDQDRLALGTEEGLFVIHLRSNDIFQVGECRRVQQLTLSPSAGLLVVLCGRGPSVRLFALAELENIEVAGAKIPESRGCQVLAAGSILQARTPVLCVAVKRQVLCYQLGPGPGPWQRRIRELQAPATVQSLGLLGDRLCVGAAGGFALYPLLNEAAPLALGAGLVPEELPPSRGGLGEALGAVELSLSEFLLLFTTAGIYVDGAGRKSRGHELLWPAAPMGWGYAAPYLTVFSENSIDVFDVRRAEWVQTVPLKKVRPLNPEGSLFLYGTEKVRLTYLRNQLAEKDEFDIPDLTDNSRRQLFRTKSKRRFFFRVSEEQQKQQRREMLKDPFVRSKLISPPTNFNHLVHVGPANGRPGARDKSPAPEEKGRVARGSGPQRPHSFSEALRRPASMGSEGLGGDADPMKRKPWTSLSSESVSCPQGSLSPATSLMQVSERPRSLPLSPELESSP
Chain of RPS6KA1 KD1 (human) (Q15418 whole entry, looked up): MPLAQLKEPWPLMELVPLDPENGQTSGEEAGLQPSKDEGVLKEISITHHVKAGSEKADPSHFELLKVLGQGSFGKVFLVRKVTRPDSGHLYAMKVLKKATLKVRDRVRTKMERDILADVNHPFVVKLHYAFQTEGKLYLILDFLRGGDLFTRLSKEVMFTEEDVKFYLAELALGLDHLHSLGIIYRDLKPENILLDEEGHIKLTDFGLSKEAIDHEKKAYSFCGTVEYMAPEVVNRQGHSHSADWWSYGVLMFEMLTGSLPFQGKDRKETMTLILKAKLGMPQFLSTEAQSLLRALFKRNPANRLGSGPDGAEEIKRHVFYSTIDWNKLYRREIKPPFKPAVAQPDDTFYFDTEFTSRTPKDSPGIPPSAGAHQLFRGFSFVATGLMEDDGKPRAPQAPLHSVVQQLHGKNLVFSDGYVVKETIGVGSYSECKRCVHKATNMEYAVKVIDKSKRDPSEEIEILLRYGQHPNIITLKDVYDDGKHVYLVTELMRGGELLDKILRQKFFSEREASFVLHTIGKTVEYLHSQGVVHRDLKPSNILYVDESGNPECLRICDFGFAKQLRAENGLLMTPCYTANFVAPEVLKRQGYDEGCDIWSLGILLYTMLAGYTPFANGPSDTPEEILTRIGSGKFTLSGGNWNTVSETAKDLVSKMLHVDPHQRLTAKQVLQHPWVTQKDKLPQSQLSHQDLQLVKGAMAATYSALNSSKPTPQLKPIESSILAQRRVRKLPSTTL
Chain of CDK7 (human) (P50613 whole entry, looked up): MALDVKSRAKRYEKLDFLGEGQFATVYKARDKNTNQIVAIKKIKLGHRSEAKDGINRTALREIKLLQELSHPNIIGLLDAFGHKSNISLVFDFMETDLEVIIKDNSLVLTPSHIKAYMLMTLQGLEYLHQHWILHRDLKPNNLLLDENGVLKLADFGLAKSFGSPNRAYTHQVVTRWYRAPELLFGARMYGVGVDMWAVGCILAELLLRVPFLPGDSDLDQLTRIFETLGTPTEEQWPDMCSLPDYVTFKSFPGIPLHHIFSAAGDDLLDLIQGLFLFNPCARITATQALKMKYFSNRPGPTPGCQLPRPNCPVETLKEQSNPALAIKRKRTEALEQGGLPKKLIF
Chain of CDK15 (human) (Q96Q40 whole entry, looked up): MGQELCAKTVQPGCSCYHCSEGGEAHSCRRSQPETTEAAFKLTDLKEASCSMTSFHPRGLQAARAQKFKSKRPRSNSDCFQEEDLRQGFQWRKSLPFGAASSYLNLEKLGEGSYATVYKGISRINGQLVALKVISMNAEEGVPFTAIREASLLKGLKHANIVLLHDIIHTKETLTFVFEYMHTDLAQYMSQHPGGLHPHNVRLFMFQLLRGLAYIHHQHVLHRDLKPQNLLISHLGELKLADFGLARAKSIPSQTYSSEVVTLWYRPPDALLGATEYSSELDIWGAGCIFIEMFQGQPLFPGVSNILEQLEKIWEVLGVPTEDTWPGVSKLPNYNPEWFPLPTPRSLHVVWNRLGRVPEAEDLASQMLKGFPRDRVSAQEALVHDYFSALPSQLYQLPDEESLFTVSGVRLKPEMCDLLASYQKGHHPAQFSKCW

## N#CCNC(=O)c1ccc(-c2ccnc(Nc3ccc(N4CCOCC4)cc3)n2)cc1
MAPK6 (human)
  kinase still bound, per cent of control: 71%
NEK6 (human)
  kinase still bound, per cent of control: 6.2%
[1]
  kinase still bound, per cent of control: 0.1%
ALK (human)
  kinase still bound, per cent of control: 100%
RPS6KA5 KD2 (human)
  kinase still bound, per cent of control: 9.3%
CDK15 (human)
  kinase still bound, per cent of control: 58%
FLT1 (human)
  kinase still bound, per cent of control: 55%
[2]
  kinase still bound, per cent of control: 100%
CDC2L2 (human)
  kinase still bound, per cent of control: 58%
MAPKAPK5 (human)
  kinase still bound, per cent of control: 4.4%
MAPK3 (human)
  kinase still bound, per cent of control: 100%
PAK1 (human)
  kinase still bound, per cent of control: 100%
MAPK15 (human)
  kinase still bound, per cent of control: 0.25%
CSNK2A1 (human)
  kinase still bound, per cent of control: 52%
SGK1 (human)
  kinase still bound, per cent of control: 2.8%
RPS6KA4 KD1 (human)
  kinase still bound, per cent of control: 100%
CIT (human)
  kinase still bound, per cent of control: 0.35%
LTK (human)
  kinase still bound, per cent of control: 100%
ABL1 (human)
  kinase still bound, per cent of control: 54%
[3]
  kinase still bound, per cent of control: 65%
STK4 (human)
  kinase still bound, per cent of control: 100%
CDK7 (human)
  kinase still bound, per cent of control: 3.8%
BUB1 (human)
  kinase still bound, per cent of control: 3.5%
MAP3K11 (human)
  kinase still bound, per cent of control: 95%
SYK (human)
  kinase still bound, per cent of control: 32%
CSNK2A2 (human)
  kinase still bound, per cent of control: 6.2%
NEK7 (human)
  kinase still bound, per cent of control: 2.2%
PKMYT1 (human)
  kinase still bound, per cent of control: 100%
NTRK3 (human)
  kinase still bound, per cent of control: 63%
PLK2 (human)
  kinase still bound, per cent of control: 51%
CDC42BPG (human)
  kinase still bound, per cent of control: 96%
MAPK11 (human)
  kinase still bound, per cent of control: 100%
GSG2 (human)
  kinase still bound, per cent of control: 67%
ERBB4 (human)
  kinase still bound, per cent of control: 100%
RPS6KA1 KD1 (human)
  kinase still bound, per cent of control: 100%
EGFR (human)
  kinase still bound, per cent of control: 100%
STK17B (human)
  kinase still bound, per cent of control: 2.6%
ERBB3 (human)
  kinase still bound, per cent of control: 100%
